Measured values taken from US12258327B2, “5-membered heteroaryl-containing aminopyridine compounds as EGFR inhibitors” (YUHAN CORPORATION, priority 2021, dated 2025).
Where two headings read alike, the source gives them in different places.

Tests used:
EGFR L858R/C797S = EGFR L858R/C797S (Homo sapiens, UniProt P00533, C797S/L858R); assay: Biochemical EGFR kinase assay (Lance Ultra TR-FRET), double mutant L858R/C797S
Procedure, shortened: (§1)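 In this biochemical assay, phosphorylation after a one-hour room-temperature reaction was detected with europium-labelled anti-phosphopeptide antibody at 2 nM final concentration.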

EGFR del19/C797S = EGFR del19/C797S (Homo sapiens, UniProt P00533, C797S/DEL746-750); assay: Biochemical EGFR kinase assay (Lance Ultra TR-FRET), double mutant del19/C797S
Chain of EGFR del19/C797S (P00533 with tags, fused parts or gaps DEL746-750/C797S): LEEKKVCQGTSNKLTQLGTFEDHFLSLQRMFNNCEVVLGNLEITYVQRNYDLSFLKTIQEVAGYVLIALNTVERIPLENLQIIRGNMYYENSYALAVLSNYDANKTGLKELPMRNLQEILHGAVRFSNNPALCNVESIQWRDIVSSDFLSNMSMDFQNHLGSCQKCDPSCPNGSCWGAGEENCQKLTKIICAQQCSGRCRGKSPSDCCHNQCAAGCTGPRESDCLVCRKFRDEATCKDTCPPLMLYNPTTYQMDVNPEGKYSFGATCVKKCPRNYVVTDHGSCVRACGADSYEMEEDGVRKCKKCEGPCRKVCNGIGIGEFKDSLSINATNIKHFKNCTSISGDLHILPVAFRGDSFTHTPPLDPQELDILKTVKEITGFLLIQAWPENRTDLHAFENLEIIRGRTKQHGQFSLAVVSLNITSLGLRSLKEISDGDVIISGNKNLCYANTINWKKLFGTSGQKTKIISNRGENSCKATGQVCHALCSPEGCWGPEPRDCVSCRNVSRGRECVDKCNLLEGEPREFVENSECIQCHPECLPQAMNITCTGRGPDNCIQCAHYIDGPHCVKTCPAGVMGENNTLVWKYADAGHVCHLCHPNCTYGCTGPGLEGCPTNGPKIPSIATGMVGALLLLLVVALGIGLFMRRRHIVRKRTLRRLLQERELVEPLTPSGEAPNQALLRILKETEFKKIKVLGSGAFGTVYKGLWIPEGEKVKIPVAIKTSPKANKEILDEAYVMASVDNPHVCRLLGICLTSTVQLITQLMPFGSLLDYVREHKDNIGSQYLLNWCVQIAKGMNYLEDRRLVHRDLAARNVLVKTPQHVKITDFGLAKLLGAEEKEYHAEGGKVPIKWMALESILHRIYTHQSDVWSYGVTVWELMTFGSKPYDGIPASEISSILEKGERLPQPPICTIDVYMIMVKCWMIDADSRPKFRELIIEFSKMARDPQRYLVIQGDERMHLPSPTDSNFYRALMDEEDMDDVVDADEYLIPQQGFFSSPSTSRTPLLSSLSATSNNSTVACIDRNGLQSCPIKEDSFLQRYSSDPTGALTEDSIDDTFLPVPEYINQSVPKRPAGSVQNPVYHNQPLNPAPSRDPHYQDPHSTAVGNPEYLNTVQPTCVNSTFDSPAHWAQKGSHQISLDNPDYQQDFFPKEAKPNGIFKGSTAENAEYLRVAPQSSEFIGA
Procedure, shortened: as §1

EGFR wildtype (WT) = EGFR wildtype (WT) (Homo sapiens, UniProt P00533); assay: Biochemical EGFR kinase assay (Lance Ultra TR-FRET), wildtype
Procedure, shortened: as §1

EGFR del19/T790M/C797S = EGFR del19/T790M/C797S (Homo sapiens, UniProt P00533, C797S/DEL746-750/T790M); assay: Biochemical EGFR kinase assay (Lance Ultra TR-FRET), triple mutant del19/T790M/C797S
Chain of EGFR del19/T790M/C797S (P00533 with tags, fused parts or gaps DEL746-750/T790M/C797S): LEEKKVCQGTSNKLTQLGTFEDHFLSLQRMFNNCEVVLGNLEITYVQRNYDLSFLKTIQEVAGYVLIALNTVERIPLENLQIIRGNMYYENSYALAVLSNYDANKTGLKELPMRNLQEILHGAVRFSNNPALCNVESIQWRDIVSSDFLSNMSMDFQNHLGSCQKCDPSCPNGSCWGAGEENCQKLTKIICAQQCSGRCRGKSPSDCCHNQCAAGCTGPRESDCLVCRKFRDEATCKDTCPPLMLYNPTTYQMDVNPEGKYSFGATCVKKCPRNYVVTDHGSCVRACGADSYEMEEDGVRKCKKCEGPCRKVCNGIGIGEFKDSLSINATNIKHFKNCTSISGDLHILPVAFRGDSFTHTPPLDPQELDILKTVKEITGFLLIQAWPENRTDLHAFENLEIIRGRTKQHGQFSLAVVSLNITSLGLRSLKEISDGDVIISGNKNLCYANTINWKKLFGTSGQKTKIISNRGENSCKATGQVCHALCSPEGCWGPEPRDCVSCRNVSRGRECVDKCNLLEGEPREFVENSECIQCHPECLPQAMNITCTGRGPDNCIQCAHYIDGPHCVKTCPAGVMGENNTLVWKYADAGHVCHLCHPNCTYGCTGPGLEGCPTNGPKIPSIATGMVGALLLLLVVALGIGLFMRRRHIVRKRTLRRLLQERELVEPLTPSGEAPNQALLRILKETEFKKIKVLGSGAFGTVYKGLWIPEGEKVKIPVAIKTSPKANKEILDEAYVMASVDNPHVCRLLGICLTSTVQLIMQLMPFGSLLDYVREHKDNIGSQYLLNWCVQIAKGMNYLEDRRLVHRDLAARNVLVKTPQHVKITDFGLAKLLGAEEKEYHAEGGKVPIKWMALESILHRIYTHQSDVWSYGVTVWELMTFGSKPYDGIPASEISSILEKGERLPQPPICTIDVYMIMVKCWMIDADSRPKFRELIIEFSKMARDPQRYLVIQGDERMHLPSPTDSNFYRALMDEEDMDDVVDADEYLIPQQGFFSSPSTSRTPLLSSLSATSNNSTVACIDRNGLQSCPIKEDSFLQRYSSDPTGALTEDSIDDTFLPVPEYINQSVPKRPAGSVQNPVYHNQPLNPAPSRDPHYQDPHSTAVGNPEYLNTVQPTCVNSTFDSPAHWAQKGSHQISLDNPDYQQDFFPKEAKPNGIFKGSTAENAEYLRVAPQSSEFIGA
Procedure, shortened: as §1

EGFR L858R/T790M/C797S = EGFR L858R/T790M/C797S (Homo sapiens, UniProt P00533, C797S/L858R/T790M); assay: Biochemical EGFR kinase assay (Lance Ultra TR-FRET), triple mutant L858R/T790M/C797S
Chain of EGFR L858R/T790M/C797S (P00533 25-1210 T790M/C797S/L858R): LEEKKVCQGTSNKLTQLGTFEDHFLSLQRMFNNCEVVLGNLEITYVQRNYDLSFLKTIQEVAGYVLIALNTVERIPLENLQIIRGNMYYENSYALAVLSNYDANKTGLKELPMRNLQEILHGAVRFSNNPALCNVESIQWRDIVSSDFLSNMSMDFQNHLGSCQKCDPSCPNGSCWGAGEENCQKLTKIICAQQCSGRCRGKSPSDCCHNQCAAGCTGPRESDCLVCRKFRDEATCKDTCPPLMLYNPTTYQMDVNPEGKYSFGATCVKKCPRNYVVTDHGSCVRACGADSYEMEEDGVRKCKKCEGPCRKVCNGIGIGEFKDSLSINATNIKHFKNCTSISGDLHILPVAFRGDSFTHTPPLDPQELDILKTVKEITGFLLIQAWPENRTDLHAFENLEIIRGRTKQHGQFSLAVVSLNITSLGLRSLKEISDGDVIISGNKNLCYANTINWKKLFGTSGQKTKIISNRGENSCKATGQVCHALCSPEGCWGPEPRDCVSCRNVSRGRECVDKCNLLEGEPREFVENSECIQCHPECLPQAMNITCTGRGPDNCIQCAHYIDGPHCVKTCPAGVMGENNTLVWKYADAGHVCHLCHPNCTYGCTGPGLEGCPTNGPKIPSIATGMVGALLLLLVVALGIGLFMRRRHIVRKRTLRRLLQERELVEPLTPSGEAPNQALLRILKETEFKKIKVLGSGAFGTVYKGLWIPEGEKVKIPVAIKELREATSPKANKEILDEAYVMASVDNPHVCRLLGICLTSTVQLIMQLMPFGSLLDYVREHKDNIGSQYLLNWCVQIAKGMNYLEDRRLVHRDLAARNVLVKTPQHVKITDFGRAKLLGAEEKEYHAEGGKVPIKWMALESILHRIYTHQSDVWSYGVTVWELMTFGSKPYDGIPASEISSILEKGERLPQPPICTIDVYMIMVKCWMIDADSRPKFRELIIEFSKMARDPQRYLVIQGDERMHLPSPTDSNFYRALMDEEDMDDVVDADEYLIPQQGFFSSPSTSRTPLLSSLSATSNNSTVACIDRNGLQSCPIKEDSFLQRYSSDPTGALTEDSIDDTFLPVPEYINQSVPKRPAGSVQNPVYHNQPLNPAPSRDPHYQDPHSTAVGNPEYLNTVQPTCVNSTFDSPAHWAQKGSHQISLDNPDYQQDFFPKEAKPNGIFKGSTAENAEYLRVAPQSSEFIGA
Procedure, shortened: as §1

[1] = IC50 L858R/C797S (nM) 100 μM ATP, 100 μM ATP
[2] = IC50 del19/C797S (nM) 100 μM ATP, 100 μM ATP
[3] = IC50 WT (nM) 100 μM ATP, 100 μM ATP
[4] = Km ATP, read-out: IC50 WT (nM) Km ATP
[5] = IC50 del19/T790M/C797S (nM) 100 μM ATP, 100 μM ATP
[6] = IC50 L858R/T790M/C797S (nM) 100 μM ATP, 100 μM ATP
[7] = Km ATP, read-out: IC50 L858R/C797S (nM) Km ATP
[8] = Km ATP, read-out: IC50 del19/C797S (nM) Km ATP
[9] = Km ATP, read-out: IC50 del19/T790M/C797S (nM) Km ATP
[10] = Km ATP, read-out: IC50 L858R/T790M/C797S (nM) Km ATP

Chain of EGFR L858R/C797S (P00533 25-1210 C797S/L858R): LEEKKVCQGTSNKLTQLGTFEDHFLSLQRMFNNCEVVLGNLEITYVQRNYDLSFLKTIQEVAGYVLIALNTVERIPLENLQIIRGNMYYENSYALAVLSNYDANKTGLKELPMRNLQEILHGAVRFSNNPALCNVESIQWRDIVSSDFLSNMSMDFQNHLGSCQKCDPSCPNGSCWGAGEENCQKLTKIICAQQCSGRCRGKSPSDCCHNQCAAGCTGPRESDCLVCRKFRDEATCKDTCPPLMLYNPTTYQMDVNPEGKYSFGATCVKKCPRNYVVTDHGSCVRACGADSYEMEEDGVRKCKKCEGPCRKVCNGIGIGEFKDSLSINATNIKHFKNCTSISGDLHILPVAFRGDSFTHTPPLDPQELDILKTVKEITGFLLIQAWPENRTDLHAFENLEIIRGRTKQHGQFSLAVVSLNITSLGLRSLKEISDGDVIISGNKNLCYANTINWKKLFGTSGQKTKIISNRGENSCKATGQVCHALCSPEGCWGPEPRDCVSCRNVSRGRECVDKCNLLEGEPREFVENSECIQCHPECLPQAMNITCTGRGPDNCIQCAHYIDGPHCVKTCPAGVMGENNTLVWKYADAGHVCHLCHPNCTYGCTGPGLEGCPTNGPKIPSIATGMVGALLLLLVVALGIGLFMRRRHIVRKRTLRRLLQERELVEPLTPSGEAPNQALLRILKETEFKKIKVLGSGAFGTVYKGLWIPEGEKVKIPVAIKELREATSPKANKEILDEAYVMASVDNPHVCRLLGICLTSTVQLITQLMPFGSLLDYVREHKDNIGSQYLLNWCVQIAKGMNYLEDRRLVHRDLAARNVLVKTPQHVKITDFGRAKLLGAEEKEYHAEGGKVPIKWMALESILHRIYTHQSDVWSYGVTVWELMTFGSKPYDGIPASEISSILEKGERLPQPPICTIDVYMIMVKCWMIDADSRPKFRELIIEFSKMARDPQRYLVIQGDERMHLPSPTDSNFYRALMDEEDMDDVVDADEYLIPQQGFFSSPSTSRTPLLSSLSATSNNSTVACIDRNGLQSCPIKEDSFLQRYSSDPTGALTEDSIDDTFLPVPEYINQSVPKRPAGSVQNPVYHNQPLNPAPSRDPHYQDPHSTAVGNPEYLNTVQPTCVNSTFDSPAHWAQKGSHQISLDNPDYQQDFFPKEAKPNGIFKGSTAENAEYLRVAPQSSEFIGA

| Compound | IC50 (EGFR L858R/C797S; [1]) | IC50 (EGFR del19/C797S; [2]) | IC50 (EGFR wildtype (WT); [3]) | IC50 (EGFR wildtype (WT); [4]) | IC50 (EGFR del19/T790M/C797S; [5]) | IC50 (EGFR L858R/T790M/C797S; [6]) | IC50 (EGFR L858R/C797S; [7]) | IC50 (EGFR del19/C797S; [8]) | IC50 (EGFR del19/T790M/C797S; [9]) | IC50 (EGFR L858R/T790M/C797S; [10]) |
| --- | --- | --- | --- | --- | --- | --- | --- | --- | --- | --- |
| CC(C)(O)Cn1cc(-c2nccc(Nc3cc(N[C@H]4CC[C@@](C)(O)CC4)c(-c4ccn(C(F)F)n4)cn3)n2)cn1 [Example 142, (1s,4s)-4-((5-(1-(Difluoromethyl)-1H-pyrazol-3-yl)-2-((2-(1-(2-hydroxy-2-methylpropyl)-1H-pyrazol-4-yl)pyrimidin-4-yl)amino)pyridin-4-yl)amino)-1-methylcyclohexan-1-ol] | 37.5 nM | 114 nM | > 10000 nM | 486 nM | 17.6 nM | 33.8 nM | – | – | – | – |
| C[C@]1(O)CC[C@@H](Nc2cc(Nc3ccnc(-c4cccnc4F)n3)ncc2-c2ccn(C(F)F)n2)CC1 [Example 171, (1s,4s)-4-((5-(1-(Difluoromethyl)-1H-pyrazol-3-yl)-2-((2-(2-fluoropyridin-3-yl)pyrimidin-4-yl)amino)pyridin-4-yl)amino)-1-methylcyclohexan-1-ol] | – | – | – | 523 nM | – | – | 86.4 nM | 96.6 nM | 2.6 nM | 2.2 nM |
| CC(C)Nc1cc(Nc2ccnc(-c3cnn(S(=O)(=O)C4CC4)c3)n2)ncc1-c1ccn(CC(F)F)n1 [Example 248, N^2-(2-(1-(Cyclopropylsulfonyl)-1H-pyrazol-4-yl)pyrimidin-4-yl)-5-(1-(2,2-difluoroethyl)-1H-pyrazol-3-yl)-N^4-isopropylpyridine-2,4-diamine] | – | – | – | 286 nM | – | – | 4.8 nM | 14.7 nM | 0.5 nM | 0.3 nM |

The next compounds have a lower IC50 (EGFR wildtype (WT); [4]) than those just listed; values first:

| IC50 (EGFR L858R/C797S; [1]) | IC50 (EGFR del19/C797S; [2]) | IC50 (EGFR wildtype (WT); [3]) | IC50 (EGFR wildtype (WT); [4]) | IC50 (EGFR del19/T790M/C797S; [5]) | IC50 (EGFR L858R/T790M/C797S; [6]) | IC50 (EGFR L858R/C797S; [7]) | IC50 (EGFR del19/C797S; [8]) | IC50 (EGFR del19/T790M/C797S; [9]) | IC50 (EGFR L858R/T790M/C797S; [10]) | Compound |
| --- | --- | --- | --- | --- | --- | --- | --- | --- | --- | --- |
| – | – | – | 3.9 nM | – | – | 0.1 nM | 1.3 nM | 0.1 nM | 0.1 nM | O=S(=O)(C1CC1)n1cc(-c2nccc(Nc3cc(NN4CCC(O)CC4)c(-c4ccn(C(F)F)n4)cn3)n2)cn1 [Example 153, 1-((2-((2-(1-(Cyclopropylsulfonyl)-1H-pyrazol-4-yl)pyrimidin-4-yl)amino)-5-(1-(difluoromethyl)-1H-pyrazol-3-yl)pyridin-4-yl)amino)piperidin-4-ol] |
| 123 nM | 10.6 nM | > 10000 nM | 183 nM | 0.4 nM | 0.6 nM | 4.4 nM | 6.3 nM | 0.5 nM | 0.3 nM | CCOC(=O)c1ccn(-c2cnc(Nc3ccnc(-c4cnn(S(=O)(=O)C5CC5)c4)n3)cc2N[C@H]2CC[C@@](C)(O)CC2)n1 [Example 102, Ethyl 1-(6-((2-(1-(cyclopropylsulfonyl)-1H-pyrazol-4-yl)pyrimidin-4-yl)amino)-4-(((1s,4s)-4-hydroxy-4-methylcyclohexyl)amino)pyridin-3-yl)-1H-pyrazole-3-carboxylate] |
| – | – | – | 87.1 nM | – | – | 59.5 nM | 51.5 nM | 11 nM | 3.8 nM | O=S(=O)(C1CC1)n1cc(-c2nccc(Nc3cc(N[C@H]4CC[C@@H](CC(F)F)CC4)c(-c4ccn(C(F)F)n4)cn3)n2)cn1 [Example 185, N^2-(2-(1-(Cyclopropylsulfonyl)-1H-pyrazol-4-yl)pyrimidin-4-yl)-N^4-((1s,4s)-4-(2,2-difluoroethyl)cyclohexyl)-5-(1-(difluoromethyl)-1H-pyrazol-3-yl)pyridine-2,4-diamine] |
